Each structure is given as a SMILES string.

Common to all, as to assay type: in vivo, human
In one assay the test system is cataract. As to the kind of experiment: Example 11: cataract patient. To be noted: 1 mg/l, 1 drop (50 μl) once per day.
In another assay the test system is chalazion. As to the kind of experiment: Example 14: chalazion. To be noted: child, right eye; 1 mg/l, 1 drop (50 μl) once every morning.
The subject of assay [1] is Posner-Schlossmans' Syndrome. As to the kind of experiment: Example 21: Posner-Schlossmans' Syndrome.
The subject of the next assay is myopia. As to the kind of experiment: Example 15: myopia.
Assay [2] has as its system pigmentary retinal degeneration. In words: Example 13: pigmentary retinal degeneration. The note with it: after 77 days. Here is the method: The patient is person, and has artificial intraocular lens inserted eyes already carried out a cataract operation. Due to pigmentary retinal degeneration, narrowing of visual field occurs. […] After 77 days from initiation of administration, it could be confirmed that both of visual acuity and visual field were improved. Also, when the visual fields were measured by OCTOPUS 1-2-3 static perimeter before administration and after 77 days from the initiation of the administration, and they were compared, it can be confirmed to be improved. (see FIGS. 27 to 30)

The subject of another assay is macular hole. In words: Example 25: macular hole.

As to `C[C@]12CC[C@@H]3c4ccc(O)cc4CC[C@H]3[C@@H]1CC[C@@H]2O` [17β-estradiol], the “opacity of cataract, slit lamp microscope” value with cataract is listed as “opacity of cataract had been reduced”. The visual acuity entry with cataract is “improvement in visual acuity was admitted”. For the same compound, the “time until tumor disappeared” value with chalazion turned out to be 12 days. Further, in assay [1] (after 1 week), the iritis result is recorded as “iritis disappeared”. In assay [1] (patient, left eye, 1 mg/l, 1 drop (50 μl) once a day for 1 week, before 36), the “intraocular pressure Tos” value turned out to be 17 mmHg. Also, the “visual acuity Vs” value came out at 1.0 in the assay with myopia ((1) after 9 days, before 0.6); 0.5 in the assay with myopia ((2) after 45 days, before 0.3); 0.5 in assay [2] (before 0.8). The “visual fields by OCTOPUS 1-2-3 static perimeter” value in assay [2] is given as “improved”. In assay [2] (before 0.8), the “Vs vision after correction” value worked out at 1.0. The “visual acuity, left eye” value in the assay with macular hole (after 1 month, before 0.7) is recorded as 1.2. Further, in the assay on macular hole (person, left eye, 10 mg/l, 1 drop (50 μl) twice a day for 1 month), the macular hole outcome was “macular hole was cured”.

Values taken from patent publication US20110212199A1, “AGENT FOR TREATING EYE DISEASES” (priority 2003, published 2011).
